Patent publication US20240400555A1 (Initial Therapeutics, Inc., priority 2023, published 2024)
Where two headings read alike, the source gives them in different places.

System: MV-4-11 cells
Test: Cell Viability Assay in MV-4-11 Cells
Format: cell-based
Details: MV-4-11 cells, 72 h, Cell-Titer Glo, read-out: IC50
Summary of the method: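 MV-4-11 cells at 7,000/well in IMDM with 10% FBS, exposed to compound for 72 h. Viability by CellTiter-Glo luminescence, normalized to DMSO as 100%, fitted with a four-parameter curve.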

Row | SMILES | IC50 (Homo sapiens, MV4-11, 72 h) [nM] | IC50 [nM]
1 | CNC(=O)C#Cc1cc2c(N(C(=O)c3ccc(-c4cn(C)nn4)cc3F)[C@@H]3CCCNC3)nccc2s1 [Example 550, 2-fluoro-N-[2-[3-(methylamino)-3-oxo-prop-1-ynyl]thieno[3,2-c]pyridin-4-yl]-4-(1-methyltriazol-4-yl)-N-[(3R)-3-piperidyl] benzamide] | > 6000 | 
2 | Cn1cc(-c2ccc(C(=O)N(c3nccc4sc(C#CC(C)(C)O)cc34)[C@@H]3CCCNC3)c(F)c2)nn1 [Example 551, 2-fluoro-N-[2-(3-hydroxy-3-methyl-but-1-ynyl)thieno[3,2-c]pyridin-4-yl]-4-(1-methyltriazol-4-yl)-N-[(3R)-3-piperidyl]benzamide] | 520 | 
3 | Cn1cc(-c2ccc(C(=O)N(c3nccc4sc(C(N)=O)cc34)[C@@H]3CCCNC3)c(F)c2)nn1 [Example 552, 4-[[2-fluoro-4-(1-methyltriazol-4-yl)benzoyl]-[(3R)-3-piperidyl]amino] thieno [3,2-c] pyridine-2-carboxamide] | 910 | 
4 | Nc1ccc(-c2cc3c(N(C(=O)c4ccc(-n5nnc6cccnc65)cc4F)[C@@H]4CCCNC4)nccc3s2)cn1 [Example 553, N-[2-(6-amino-3-pyridyl)thieno[3,2-c]pyridin-4-yl]-2-fluoro-N-[(3R)-3-piperidyl]-4-(triazolo[4,5-b]pyridin-3-yl)benzamide] | 78 | 
5 | O=C(c1ccc(-n2nnc3cccnc32)cc1F)N(c1nccc2cc(-c3ccccn3)ccc12)[C@@H]1CCCNC1 [Example 556, (R)-4-(3H-[1,2,3]triazolo[4,5-b]pyridin-3-yl)-2-fluoro-N-(piperidin-3-yl)-N-(6-(pyridin-2-yl)isoquinolin-1-yl) benzamide] | 650 | 
6 | O=C(c1ccc(-n2nnc3cccnc32)cc1F)N(c1nccc2sc(-c3ccc4[nH]ncc4c3)cc12)[C@@H]1CCCNC1 [Example 557, 2-fluoro-N-[2-(1H-indazol-5-yl)thieno[3,2-c]pyridin-4-yl]-N-[(3R)-3-piperidyl]-4-(triazolo[4,5-b]pyridin-3-yl)benzamide] | 130 | 
7 | Cc1cccc2ccnc(N(C(=O)c3ccc(Nc4nccc(-c5ccncc5)n4)cc3F)[C@@H]3CCCNC3)c12 [Example 558, (R)-2-fluoro-N-(8-methylisoquinolin-1-yl)-N-(piperidin-3-yl)-4-((4-(pyridin-4-yl)pyrimidin-2-yl)amino)benzamide] | 11 | 
8 | Cc1cccc2ccnc(N(C(=O)c3ccc(Nc4nccc(-c5ccccc5)n4)cc3F)[C@@H]3CCCNC3)c12 [Example 559, (R)-2-fluoro-N-(8-methylisoquinolin-1-yl)-4-((4-phenylpyrimidin-2-yl)amino)-N-(piperidin-3-yl)benzamide] | 34 | 
9 | O=C(c1ccc(Nc2nccc(N3CCOCC3)n2)cc1F)N(c1nccc2cc(F)ccc12)[C@@H]1CCCNC1 [Example 560, (R)-2-fluoro-N-(6-fluoroisoquinolin-1-yl)-4-((4-morpholinopyrimidin-2-yl)amino)-N-(piperidin-3-yl)benzamide] | 220 | 
10 | O=C(c1ccc(Nc2nccc(N3CCCCC3)n2)cc1F)N(c1nccc2cc(F)ccc12)[C@@H]1CCCNC1 [Example 561, (R)-2-fluoro-N-(6-fluoroisoquinolin-1-yl)-4-((4-(piperidin-1-yl)pyrimidin-2-yl)amino)-N-(piperidin-3-yl)benzamide] | 1200 | 
11 | CN1CCN(c2ccnc(Nc3ccc(C(=O)N(c4nccc5cc(F)ccc45)[C@@H]4CCCNC4)c(F)c3)n2)CC1 [Example 562, (R)-2-fluoro-N-(6-fluoroisoquinolin-1-yl)-4-((4-(4-methylpiperazin-1-yl)pyrimidin-2-yl)amino)-N-(piperidin-3-yl)benzamide] | 340 | 
12 | Cn1cc(-c2ccc(C(=O)N(c3nccc4sc(C(=O)c5cccnc5)cc34)[C@@H]3CCCNC3)c(F)c2)nn1 [Example 563] | 340 | 
13 | Cc1cc(F)cc2ccnc(N(C(=O)c3ccc(Nc4ncccn4)cc3F)[C@@H]3CCCNC3)c12 [Example 564, (R)-2-fluoro-N-(6-fluoro-8-methylisoquinolin-1-yl)-N-(piperidin-3-yl)-4-(pyrimidin-2-ylamino)benzamide] | 14 | 
14 | Nc1c(F)cc(-c2cc3c(N(C(=O)c4ccc(-n5nnc6cccnc65)cc4F)[C@@H]4CCCNC4)nccc3s2)cc1F [Example 565, N-[2-(4-amino-3,5-difluoro-phenyl)thieno[3,2-c]pyridin-4-yl]-2-fluoro-N-[(3R)-3-piperidyl]-4-(triazolo[4,5-b]pyridin-3-yl)benzamide] | 230 | 
15 | O=C(c1ccc(-n2nnc3cccnc32)cc1F)N(c1nccc2sc(-c3ccnc(F)c3)cc12)[C@@H]1CCCNC1 [Example 566, 2-fluoro-N-[2-(2-fluoro-4-pyridyl)thieno [3,2-c]pyridin-4-yl]-N-[(3R)-3-piperidyl]-4-(triazolo [4,5-b]pyridin-3-yl) benzamide] | 240 | 
16 | NC(=O)c1ccc(-c2cc3c(N(C(=O)c4ccc(-n5nnc6cccnc65)cc4F)[C@@H]4CCCNC4)nccc3s2)cc1F [Example 567, 2-fluoro-4-[4-[[2-fluoro-4-(triazolo[4,5-b]pyridin-3-yl)benzoyl]-[(3R)-3-piperidyl]amino]thieno[3,2-c]pyridin-2-yl]benzamide] | 230 | 
17 | NC(=O)c1cc(-c2cc3c(N(C(=O)c4ccc(-n5nnc6cccnc65)cc4F)[C@@H]4CCCNC4)nccc3s2)cs1 [Example 568, 4-[4-[[2-fluoro-4-(triazolo[4,5-b]pyridin-3-yl)benzoyl]-[(3R)-3-piperidyl]amino]thieno[3,2-c]pyridin-2-yl]thiophene-2-carboxamide] | 89 | 
18 | O=C(c1ccc(-n2nnc3cccnc32)cc1F)N(c1nccc2sc(-c3ccc(B(O)O)cc3)cc12)[C@@H]1CCCNC1 [Example 569, [4-[4-[[2-fluoro-4-(triazolo[4,5-b]pyridin-3-yl)benzoyl]-[(3R)-3-piperidyl]amino]thieno[3,2-c]pyridin-2-yl]phenyl]boronic acid] | 570 | 
19 | NC(=O)Cc1ccc(-c2cc3c(N(C(=O)c4ccc(-n5nnc6cccnc65)cc4F)[C@@H]4CCCNC4)nccc3s2)cc1 [Example 570, N-[2-[4-(2-amino-2-oxo-ethyl)phenyl]thieno[3,2-c]pyridin-4-yl]-2-fluoro-N-[(3R)-3-piperidyl]-4-(triazolo[4,5-b]pyridin-3-yl)benzamide] | 110 | 
20 | Cc1cc(-c2cc3c(N(C(=O)c4ccc(-n5nnc6cccnc65)cc4F)[C@@H]4CCCNC4)nccc3s2)cc(C)n1 [Example 571, N-[2-(2,6-dimethyl-4-pyridyl)thieno[3,2-c]pyridin-4-yl]-2-fluoro-N-[(3R)-3-piperidyl]-4-(triazolo[4,5-b]pyridin-3-yl)benzamide] | 63 | 
21 | Cc1cc(-c2cc3c(N(C(=O)c4ccc(-n5nnc6cccnc65)cc4F)[C@@H]4CCCNC4)nccc3s2)ccc1C(N)=O [Example 572, 4-[4-[[2-fluoro-4-(triazolo [4,5-b]pyridin-3-yl)benzoyl]-[(3R)-3-piperidyl]amino]thieno [3,2-c]pyridin-2-yl]-2-methyl-benzamide] | 89 | 
22 | NC(=O)c1ccc(-c2cc3c(N(C(=O)c4ccc(-n5nnc6cccnc65)cc4F)[C@@H]4CCCNC4)nccc3s2)cc1C(F)(F)F [Example 573, 4-[4-[[2-fluoro-4-(triazolo [4,5-b]pyridin-3-yl)benzoyl]-[(3R)-3-piperidyl]amino]thieno [3,2-c]pyridin-2-yl]-2-(trifluoromethyl) benzamide] | 230 | 
23 | Cc1cnc(-c2ccc3c(N(C(=O)c4ccc(-n5nnc6cccnc65)cc4F)[C@@H]4CCCNC4)nccc3c2)s1 [Example 574, (R)-4-(3H-[1,2,3]triazolo[4,5-b]pyridin-3-yl)-2-fluoro-N-(6-(5-methylthiazol-2-yl)isoquinolin-1-yl)-N-(piperidin-3-yl)benzamide] | 390 | 
24 | Cc1nc(-c2ccc3c(N(C(=O)c4ccc(-n5nnc6cccnc65)cc4F)[C@@H]4CCCNC4)nccc3c2)cs1 [Example 575, (R)-4-(3H-[1,2,3]triazolo[4,5-b]pyridin-3-yl)-2-fluoro-N-(6-(2-methylthiazol-4-yl)isoquinolin-1-yl)-N-(piperidin-3-yl)benzamide] | 150 | 
25 | Cc1nnc(-c2ccc3c(N(C(=O)c4ccc(-n5nnc6cccnc65)cc4F)[C@@H]4CCCNC4)nccc3c2)s1 [Example 576, (R)-4-(3H-[1,2,3]triazolo[4,5-b]pyridin-3-yl)-2-fluoro-N-(6-(5-methyl-1,3,4-thiadiazol-2-yl)isoquinolin-1-yl)-N-(piperidin-3-yl)benzamide] | 430 | 
26 | Cn1cc(-c2ccc(C(=O)N(c3nccc4cc(-c5ccccc5)ccc34)[C@@H]3CCCNC3)c(F)c2)nn1 [Example 577, (R)-2-fluoro-4-(1-methyl-1H-1,2,3-triazol-4-yl)-N-(6-phenylisoquinolin-1-yl)-N-(piperidin-3-yl)benzamide] |  | 76
27 | Cc1cccc2ccnc(N(C(=O)c3ccc(Nc4nccc(N5CCCCC5)n4)cc3F)[C@@H]3CCCNC3)c12 [Example 578, (R)-2-fluoro-N-(8-methylisoquinolin-1-yl)-4-((4-(piperidin-1-yl)pyrimidin-2-yl)amino)-N-(piperidin-3-yl)benzamide] | 45 | 
28 | Cn1cc(-c2ccc(C(=O)N(c3nccc4cc(-c5ccccc5)ccc34)[C@@H]3CCCNC3)c(F)c2)nn1 [Example 579, (R)-2-fluoro-4-(1-methyl-1H-1,2,3-triazol-4-yl)-N-(6-phenylisoquinolin-1-yl)-N-(piperidin-3-yl)benzamide] |  | 220
29 | Cn1cc(-c2ccc(C(=O)N(c3nccc4cc(-c5ccc(F)cc5)ccc34)[C@@H]3CCCNC3)c(F)c2)nn1 [Example 580, (R)-2-fluoro-N-(6-(4-fluorophenyl)isoquinolin-1-yl)-4-(1-methyl-1H-1,2,3-triazol-4-yl)-N-(piperidin-3-yl)benzamide] | 430 | 
30 | Cn1cc(-c2ccc(C(=O)N(c3nccc4cc(-c5ccccn5)ccc34)[C@@H]3CCCNC3)c(F)c2)nn1 [Example 581, (R)-2-fluoro-4-(1-methyl-1H-1,2,3-triazol-4-yl)-N-(piperidin-3-yl)-N-(6-(pyridin-2-yl)isoquinolin-1-yl)benzamide] | 340 | 
